Test results reported in PubChem BioAssay (NCI).
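Briefly, cells in 96-well plates were exposed to five compound concentrations for 48 h, and endpoints were estimated by linear interpolation. Here, GI50 denotes the concentration required for 50% inhibition of growth. TGI: concentration producing complete growth inhibition.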

How the values were obtained:
Assay in all cases: NCI anticancer screen, dose series, 48 h
[1] = test system: HCC-2998 colon
[2] = test system: ACHN renal
[3] = test system: SF-268 CNS
[4] = test system: SN12C renal
[5] = test system: SK-OV-3 ovarian
[6] = test system: CAKI-1 renal
[7] = test system: SF-295 CNS
[8] = test system: NCI-H23 lung
[9] = test system: OVCAR-4 ovarian
[10] = test system: HL-60(TB) leukemia

Row | SMILES | TGI [1] [µM] | TGI [2] [µM] | TGI [3] [µM] | TGI [4] [µM] | TGI [5] [µM] | TGI [6] [µM] | TGI [7] [µM] | TGI [8] [µM] | TGI [9] [µM] | TGI [10] [µM] | GI50 [1] [µM] | GI50 [2] [µM] | GI50 [3] [µM] | GI50 [4] [µM] | GI50 [5] [µM] | GI50 [6] [µM] | GI50 [7] [µM] | GI50 [8] [µM] | GI50 [9] [µM] | GI50 [10] [µM]
1 | Cc1ncc(CO)c(C=NCCCCCCN=Cc2c(CO)cnc(C)c2O)c1O | > 100 | > 100 | > 100 | > 100 | > 100 | > 100 | > 100 | > 100 | > 100 | > 100 |  |  |  |  |  |  |  |  |  | 
2 | Cc1ccc(S(=O)(=O)Nc2cc(Sc3ccccc3)c(O)c3ccccc23)cc1 | 35.9 | 10.4 | 8.07 | 5.68 | 29.8 | 9.19 | 26.8 | 22 | 2.95 | 4.13 | 18.4 | 2.8 | 2.57 | 2.31 | 15.6 | 3.16 | 12.9 | 4.44 | 1.59 | 1.57
3 | COc1cc(Cc2ccc3c(c2C#N)N(C)c2ccccc2S3)cc(OC)c1OC |  | > 100 | > 100 | > 100 | > 100 |  | > 100 | > 100 | > 100 | > 100 |  |  |  |  |  |  |  |  |  | 
4 | Cc1nc(N(CCO)CCO)c2sc(=S)n(-c3ccccc3)c2n1 | > 100 | > 100 | > 100 |  | > 100 |  | > 100 | > 100 |  | > 100 |  |  |  |  |  |  |  |  |  | 
5 | COc1cc(C2S/C(=C/c3ccccc3)C(=O)N2c2ccccc2Cl)cc(OC)c1OC (configuration not stated) | > 100 | > 100 | > 100 | 62.1 | > 100 | > 100 | > 100 | > 100 | > 100 |  |  |  |  |  |  |  |  |  |  | 
6 | CN(CCO)/N=N/c1nc[nH]c1C(N)=O | > 100 | > 100 | > 100 | > 100 | > 100 |  | > 100 | > 100 | > 100 | > 100 |  |  |  |  |  |  |  |  |  | 
7 | C/C(=N\NC(=S)Nc1ccc(Cl)cc1)c1nc2ncccc2[nH]1 | 21.1 | 15.8 | > 100 | 31.4 | 60.8 | 33.2 | 13.5 | 21.5 | 41.4 | > 100 |  |  |  |  |  |  |  |  |  | 
8 | O=c1oc2c(ccc3c(O)cccc32)c2c1CCCC2 | > 100 | > 100 | 40.8 | > 100 |  | > 100 | 58 | > 100 | > 100 | > 100 |  |  |  |  |  |  |  |  |  | 
9 | BrC1=CN2C[n+]3cc(Br)c4ccccc4c3N=C2c2ccccc21 |  | 34.7 | 22.1 | 50.4 | 51.8 | 48.1 | 21.5 | 56.4 | 20 | 58.5 |  |  |  |  |  |  |  |  |  | 
10 | CCOC(=O)/C(=N/Nc1ccc(Cl)cc1)N1C(=S)C=C(C)NN(C)C1=S | > 100 | > 100 | 85 | > 100 | > 100 | > 100 | 42.3 | > 100 | > 100 | > 100 |  |  |  |  |  |  |  |  |  | 
11 | COc1cc2nc(N3CCC[C@@H](NC4=CC(=O)c5ccccc5C4=O)C3)nc(N)c2cc1OC | 3.3 |  | 3.81 | 3.44 | 4.08 | 4.12 |  | 4.3 | 3.35 | 4.05 | 1.85 |  | 1.92 | 1.73 | 2.03 | 2.02 |  | 1.99 | 1.64 | 1.96
12 | NC(=S)N/N=C/c1ccc(OC(=O)COc2ccccc2Cl)cn1 | > 87.4 |  | > 100 | > 100 | > 100 | > 100 | > 100 | > 70.5 | > 100 | 64.9 |  |  |  |  |  |  |  |  |  | 
13 | CCOC(=O)C(=O)Nc1cccc(C)c1C | > 100 | > 100 | > 100 | > 100 | > 100 | > 100 | > 100 | > 100 | > 100 | > 100 |  |  |  |  |  |  |  |  |  | 
14 | C/C([O-])=C(/c1nc(-c2ccc([N+](=O)[O-])o2)no1)[n+]1cc(C)ccc1C | 25.8 |  | 62.3 | 29.3 | > 79.3 | 28.7 | 24.1 | 24.9 | 63.9 | 31.6 |  |  |  |  |  |  |  |  |  | 
15 | COC(=O)C1=C(O)C(C(=O)OC)[C@@]2(O)[C@@H](C(=O)OC)CC[C@@H]1[C@@H]2C(=O)OC (some centres not stated) | 32.2 | > 100 | 75.5 | > 100 | 34.6 |  |  | 56.6 |  | 76.6 |  |  |  |  |  |  |  |  |  | 
16 | O=C(O)CN=c1c2ccccc2n(O)c2ccccc12 | > 100 | > 100 | > 100 | > 100 | > 100 | > 100 | > 100 | > 100 | > 100 | 43 |  |  |  |  |  |  |  |  |  | 
